Assay results reported in patent publication US7208273B2, “Common polymorphism in scn5a implicated in drug-induced cardiac arrhythmia” (University of Utah Research Foundation, priority 2000, dated 2007).

Tested on: African-American individuals with SCN5A variant S1103Y
Details: carriers of SCN5A S1103Y variant; three individuals after amiodarone treatment, one after infusion of brevital; QT prolongation exacerbated in these cases
Description: To determine the genetic basis for these arrhythmias, individuals with drug-induced torsade de pointes and ventricular fibrillation were screened for mutations in known arrhythmia genes.

C=CCC1(C(C)C#CCC)C(=O)N=C([O-])N(C)C1=O.[Na+] (stereo not shown) [brevital]
arrhythmia after drug treatment: experienced arrhythmia
